This data set can be described thus: solvent given as SMILES.

`CCCCCCCCCCCCOc1cc2c3cc(OCCCCCCCCCCCC)c(OCCCCCCCCCCCC)cc3c3c(cc(OCCCCCCCCCCCC)c4nc5cc(C#Cc6ccc(CCCCCCCCCC)cc6)c(C#Cc6ccc(CCCCCCCCCC)cc6)cc5nc43)c2cc1OCCCCCCCCCCCC` yielded an absorption maximum (in ClC(Cl)Cl) of 482 nm.

Where the note is “in CC#N”, `c1ccc(-c2nc(-c3ccc(-c4cccs4)s3)[nH]c2-c2ccccc2)cc1` yielded an absorption maximum of 365 nm.

Compound `CCN1CCN(c2ccc(/N=N/c3ccc(C#N)cc3)cc2)CC1` came in with an absorption maximum (in CCOC(C)=O) of 428 nm.

Compound `COc1ccc(/C=C/c2cc(/C=C/c3ccc(OC)cc3)nc(/C=C/c3ccc(N(c4ccccc4)c4ccccc4)cc3)n2)cc1` yielded an absorption maximum (in ClCCl) of 376 nm.

For `Cc1nc2c(ccc3c2sc(/C=C/c2ccc(N(c4ccccc4)c4ccccc4)cc2)[n+]3C)s1`, the absorption maximum (in CO) is 522 nm and the absorption maximum (in ClC(Cl)Cl) is 561 nm.

As to `CC1(C)c2ccccc2N(c2ccccc2)c2ccc(-c3nc(-c4ccccc4)nc(-c4ccccc4)n3)cc21`, the absorption maximum (in Cc1ccccc1) is on record as 389.97 nm.

`CN(C)c1ccc(/C=C/c2cc(/C=C/c3ccc(N(C)C)cc3)nc(/C=C/c3ccc(N(C)C)cc3)n2)cc1`: the absorption maximum (in ClCCl) is recorded as 402 nm.

For `CC1(C)CCc2c(c3ccccc3c3nc4ccccc4nc23)O1`, the absorption maximum is, setting by setting: (in C1CCCCC1) 429.92 nm; (in C1CCOC1) 434.03 nm; (in CN(C)C=O) 438.98 nm; (in CO) 434.97 nm; (in ClC(Cl)Cl) 437.06 nm; (in c1ccccc1) 431.03 nm.

With `CC1=[N+]2C(=C(Oc3ccccc3)c3ccc(C)n3[B-]2(F)F)C=C1c1cc2n(c1)[B-](F)(F)[N+]1=CC=CC1=C2c1c(C)cc(C)cc1C`, the absorption maximum by setting is: (in C1CCCCC1) 582 nm; (in CCOC(C)=O) 577 nm.

In the case of `CC1=C2C=CC=[N+]2[B-](F)(F)n2cccc21`, the absorption maximum is listed as 500 nm (in CCCCCC), 494 nm (in CO) and 499 nm (in ClCCl).

In the case of `O=C1c2cccc3c(NCc4ccccn4)c4ccccc4c(c23)C(=O)N1Cc1ccccn1`, the absorption maximum by setting is: (in C1CCOC1) 520 nm; (in CCCCCC) 497 nm; (in CCO) 533 nm; (in Cc1ccccc1) 517 nm; (in ClCCl) 527 nm.

Regarding `CCN(CC)c1ccc(-c2nc3cc(C(NC(=O)OC(C)(C)C)C(=O)OC)ccc3o2)c(O)c1` (stereo not drawn), the absorption maximum runs as follows: (in CC1CCCCC1) 364 nm; (in CC#N) 364 nm; (in CO) 364 nm.

For `F[B-]1(F)n2c(c3cccc4cccc2c43)=Nc2cccc(Cl)[n+]21`, the absorption maximum (in C1CCOC1) was found to be 476 nm; the absorption maximum (in CC#N) stood at 470 nm; the absorption maximum (in CCCCCC) was 481 nm; the absorption maximum (in Cc1ccccc1) is reported as 481 nm; the absorption maximum (in ClCCl) was 447 nm.

`CCN(CC)c1ccc(C(=C(c2ccc(B(c3c(C)cc(C)cc3C)c3c(C)cc(C)cc3C)cc2)c2ccc(B(c3c(C)cc(C)cc3C)c3c(C)cc(C)cc3C)cc2)c2ccc(N(CC)CC)cc2)cc1`: for the setting “in C1CCOC1”, the absorption maximum was 431 nm.

`COc1ccc(-c2c3cc4ccccc4cc3c(-c3ccc(OC)cc3)c3cc4sc(C)cc4cc23)cc1` came in with an absorption maximum (in ClCCl) of 550 nm.

Under “in CCO”, `CCOC(=O)c1cc(C(=O)OCC)c2ccc(O)cc2n1` came in with an absorption maximum of 373 nm.

Compound `COc1ccc(-c2ccccc2)cc1` registered an absorption maximum (in C1CCCCC1) of 265.82 nm.

The compound `CC1(C)c2ccccc2N(c2ccc(-c3nc4cc(C#N)c(C#N)cc4nc3-c3ccc(N4c5ccccc5C(C)(C)c5ccccc54)cc3)cc2)c2ccccc21` showed an absorption maximum (in Cc1ccccc1) of 454 nm.

On to `Cc1cc(-c2ccccc2)nc2c1ccc1nc(-c3ccccc3)cn12`, for which the absorption maximum reads like this: (in CC#N) 347 nm; (in CCCCOC(C)=O) 350 nm; (in CCOC(C)=O) 352 nm; (in CO) 345 nm; (in ClC(Cl)Cl) 350 nm; (in ClCCl) 348 nm. The absorption maximum (in c1ccccc1) is reported as 351 nm.

Regarding `COc1ccc(N(c2ccc(OC)cc2)c2sc(-c3ccc(Cl)cc3)nc2-c2ccccc2)cc1`, the absorption maximum (in ClC(Cl)Cl) is reported as 393 nm.

Turning to `COc1ccc(C2=C(C)C3=C(c4c(-c5ccccn5)nc5ccccn45)c4c(C)c(-c5ccc(OC)cc5)c(C)n4[B-](F)(F)[N+]3=C2C)cc1`, the absorption maximum (in ClCCl) is recorded as 555 nm.

Take `N#CC(C#N)=Cc1ccc(-c2cccc(-c3nc4ccccc4s3)c2O)o1`: the absorption maximum is, setting by setting: (in CCO) 421 nm; (in ClCCl) 428 nm; (in O) 443 nm.

Consider `CN1C(=CC2=C([S-])C(=Cc3sc4ccccc4[n+]3C)C2=O)C(C)(C)c2ccccc21`, for which the absorption maximum (in ClC(Cl)Cl) was determined as 661 nm.

Consider `COC(=O)c1ccc(/C=C2\C=C(c3ccc(OC)c(OC)c3)OC2=O)cc1`, for which, where the note is “in C1COCCO1”, the absorption maximum was found to be 423 nm.

As for `COc1ccc(N(c2ccc(C=C(c3ccccc3)c3ccccc3)cc2)c2ccc(OC)cc2)cc1`, the absorption maximum (in Cc1ccccc1) was found to be 376 nm.

Turning to `Cc1cc(C)c(B(c2c(C)cc(C)cc2C)c2c(C)cc(-n3c4ccccc4c4cc(N(c5ccccc5)c5ccccc5)ccc43)cc2C)c(C)c1`, the absorption maximum (in Cc1ccccc1) was determined as 375 nm.

In turn, `CN(C)c1ccc(C=C2Oc3cccc(O)c3C2=O)cc1` showed an absorption maximum (in CC#N) of 449 nm.

`COC(=O)c1c(-c2cc3ccccc3oc2=O)nn(-c2cccc(Cl)c2)c1C(=O)OC` came in with an absorption maximum (in ClCCl) of 273 nm.

Turning to `CN(C)c1ccc2cc(C3=[O+][B-](F)(F)OC(c4ccccc4)=C3)ccc2c1`, the absorption maximum runs as follows: (in C1CCOC1) 492 nm; (in CC#N) 503 nm; (in CC(C)=O) 498 nm; (in CS(C)=O) 520 nm; (in Cc1ccccc1) 489 nm; (in ClC(Cl)Cl) 500 nm. The compound further showed an absorption maximum (in ClCCl) of 504 nm.

As to `CC(C)(C)c1ccc2c(c1)c1cc(C(C)(C)C)ccc1n2-c1ccc(N(c2ccc(-c3ccc(-c4ccc(N(c5ccc(-n6c7ccc(C(C)(C)C)cc7c7cc(C(C)(C)C)ccc76)cc5)c5ccc(-n6c7ccc(C(C)(C)C)cc7c7cc(C(C)(C)C)ccc76)cc5)cc4)s3)cc2)c2ccc(-n3c4ccc(C(C)(C)C)cc4c4cc(C(C)(C)C)ccc43)cc2)cc1`, the absorption maximum (in ClCCl) worked out at 396 nm.

`CN1CCc2cc(C3=Cc4cccc[n+]4[B-](F)(F)O3)ccc21` showed an absorption maximum (in ClC(Cl)Cl) of 430 nm.

Regarding `CC(C)CCC[C@@H](C)[C@H]1CC[C@H]2[C@@H]3CC=C4C[C@@H](OC(=O)Oc5cc(/C=C/C=C/c6ccc(N(C)C)cc6)ccc5[N+](=O)[O-])CC[C@]4(C)[C@H]3CC[C@]12C`, the absorption maximum (in CO) is reported as 448 nm.

The compound `Nc1ccc2ccc([O-])cc2c1` yielded an absorption maximum (in O) of 342 nm.

`CCCCCCN1C(=O)c2cccc3cc(/N=C\c4nc5ccccc5s4)cc(c23)C1=O`: the absorption maximum (in ClC(Cl)Cl) is reported as 370 nm.

Where the note is “in CO”, `Cc1ccc(-c2nc(-c3ccccc3O)[nH]c2-c2ccc(C)cc2)cc1` yielded an absorption maximum of 320 nm.

In turn, `Cc1c2oc3c(C)c(N)cc(C(=O)NC4OC(=O)C(C(C)C)N(C)C(=O)CN(C)C(=O)C5CCCN5C(=O)C(C(C)C)NC4=O)c3nc-2c(C(=O)NC2OC(=O)C(C(C)C)N(C)C(=O)CN(C)C(=O)C3CCCN3C(=O)C(C(C)C)NC2=O)c(N)c1=O` (stereo not drawn) returned an absorption maximum (in C1CCOC1) of 524.93 nm; an absorption maximum (in CC#N) of 516.03 nm; an absorption maximum (in CC(=O)O) of 521 nm; an absorption maximum (in CC(C)=O) of 522.69 nm; an absorption maximum (in CCCCO) of 532.67 nm; an absorption maximum (in CCCCOC(C)=O) of 524.07 nm. Also, the absorption maximum by setting is: (in CCCO) 533.23 nm; (in CCN(CC)CC) 534.89 nm; (in CCO) 531.93 nm; (in CCOC(C)=O) 522.62 nm; (in CN(C)C=O) 535.18 nm; (in CO) 529.7 nm. Moreover, the absorption maximum stood at 540.29 nm (in CS(C)=O); 528.44 nm (in Cc1ccccc1); 520.12 nm (in ClC(Cl)Cl); 517.19 nm (in ClCCCl); 514.17 nm (in O); 534 nm (in O=[N+]([O-])c1ccccc1). Moreover, the absorption maximum is, setting by setting: (in c1ccccc1) 522.11 nm; (in c1ccncc1) 541.16 nm.

`COCCOCCOCCOCC(COCCOCCOCCOC)Oc1cc(/C=C/c2ccc(/C=C(\C#N)c3ccccc3)cc2)c(OC(COCCOCCOCCOC)COCCOCCOCCOC)cc1/C=C/c1ccc(/C=C(\C#N)c2ccccc2)cc1` yielded an absorption maximum (in ClCCl) of 433 nm.

For the compound `COc1cccc2oc(-c3cc4c(OC)cccc4oc3=O)cc12`, the absorption maximum by setting is: (in CC#N) 383 nm; (in CCOC(C)=O) 385 nm; (in CS(C)=O) 389 nm; (in Cc1ccccc1) 389 nm; (in O) 384 nm.

With `CCCCCCCCN1c2ccccc2Sc2cc(/C=C/c3ccc(N(c4ccc(/C=C/c5ccc6c(c5)Sc5ccccc5N6CCCCCCCC)cc4)c4ccc(/C=C/c5ccc(/C=C/c6ccc(N(c7ccc(/C=C/c8ccc(N(c9ccccc9)c9ccccc9)cc8)cc7)c7ccc(/C=C/c8ccc(N(c9ccccc9)c9ccccc9)cc8)cc7)cc6)c6nsnc56)cc4)cc3)ccc21`, the absorption maximum is, setting by setting: (in C1CCOC1) 534 nm; (in CCOC(C)=O) 524 nm; (in CN(C)C=O) 528 nm; (in Cc1ccccc1) 533 nm; (in ClC(Cl)Cl) 534 nm; (in ClCCl) 533 nm.

For the setting “in ClC(Cl)Cl”, `CCC1=C(C)C2C(c3ccc(-c4ccc(-c5nc6c7ccccc7c7ccccc7c6n5-c5ccc(C(C)(C)C)cc5)cc4)cc3)c3c(C)c(CC)c(C)n3[B-](F)(F)[N+]2=C1C` (stereo not drawn) had an absorption maximum of 526 nm.

Under “in CC#N”, `CC(=O)c1c2c(c(C(C)=O)c3c1OC(CC(=O)O)O3)OCO2` showed an absorption maximum of 433 nm.

As to `ClC1=CN2C[n+]3cc(Cl)ccc3N=C2C=C1`, under “in CO”, the absorption maximum is given as 433 nm.

(Values after the Deep4Chem optical property database.)
